The values that follow come from BindingDB's records for patent US20250059156 (Sensorium Therapeutics, 2025).

The target of this test is Sodium-dependent serotonin transporter (Homo sapiens, UniProt P31645). Briefly: SERT Inhibition Assay. The method, then: SERT inhibition was measured using a Neruotransmitter Transportation Fluorescence assay. […] Compounds were prepared by in assay buffer (20 mM HEPES, 0.1% BSA). The compounds were added to the plated cells and incubated for 30 minutes at 37° C. 25 μL of dye solution (Molecular Devices Neurotransmitter Transporter Uptake Assay Kit) was added per well and incubated for 30 minutes at 37° C. The plates were then read on a plate reader.

The structures appear in SMILES notation.

Chain of Sodium-dependent serotonin transporter (P31645 whole entry): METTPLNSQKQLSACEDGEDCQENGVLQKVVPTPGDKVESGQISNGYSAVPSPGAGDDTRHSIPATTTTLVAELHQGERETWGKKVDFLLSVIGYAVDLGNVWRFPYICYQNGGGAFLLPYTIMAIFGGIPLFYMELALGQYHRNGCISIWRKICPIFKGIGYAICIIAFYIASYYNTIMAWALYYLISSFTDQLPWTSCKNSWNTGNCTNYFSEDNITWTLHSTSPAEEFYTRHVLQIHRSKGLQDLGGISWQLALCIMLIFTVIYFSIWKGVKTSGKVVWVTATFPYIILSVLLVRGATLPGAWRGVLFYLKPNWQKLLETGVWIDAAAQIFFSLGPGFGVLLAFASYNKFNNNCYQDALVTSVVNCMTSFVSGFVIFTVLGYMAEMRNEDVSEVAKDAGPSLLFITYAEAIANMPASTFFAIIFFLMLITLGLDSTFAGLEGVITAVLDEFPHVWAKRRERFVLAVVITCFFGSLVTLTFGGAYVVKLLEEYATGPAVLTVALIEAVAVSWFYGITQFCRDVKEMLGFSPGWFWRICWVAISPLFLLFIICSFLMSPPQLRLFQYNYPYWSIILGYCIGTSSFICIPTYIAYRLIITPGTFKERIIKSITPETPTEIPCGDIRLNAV

What is called IC50 is the concentration needed to halve the response being measured. A lower IC50 goes with greater potency. `COc1ccc([C@]23CCN(C)[C@H]2[C@H]2CCC[C@@H]3CC2=O)cc1OC` [US20250059156, Compound 220] gave a half-maximal inhibitory concentration (IC50) of 100 to 500 nM.
The figure for `COc1ccc([C@@]23CCN(C)[C@@H]2[C@@H]2CCC[C@H]3CC2=O)cc1OC` [US20250059156, Compound 221] is below 50 nM.
